The values that follow come from patent US12564596B2, “Agents and methods for modulating pathogen activity” (Griffith University, priority 2018, dated 2026).

For assay [1], the target named is T1, human recombinant I-domain (rI-domain) of CD11b (Homo sapiens, UniProt P11215).
T1 construct: made in house
Description: Surface plasmon resonance binding to human rI-domain (KD).

The target in assay [2] is T2, N. gonorrhoeae MS11 pilin interaction with human rI-domain (Homo sapiens, UniProt P11215).
T2 construct: was performed with human rI-domain immobilized on a CM5 sensor chip surface; made in house
T2 sequence (P11215 150-328): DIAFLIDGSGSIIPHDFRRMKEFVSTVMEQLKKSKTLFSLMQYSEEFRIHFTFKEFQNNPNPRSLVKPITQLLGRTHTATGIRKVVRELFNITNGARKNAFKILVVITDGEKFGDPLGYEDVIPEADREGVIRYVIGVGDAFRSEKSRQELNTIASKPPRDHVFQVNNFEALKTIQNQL
Put plainly: SPR 1:1 competition assay, MS11 pilin binding to rI-domain. The note with it: for inhibition at 0.1 µM: 1:1 competition, 100 nM; for Block MS11 pilin in SPR: direct competition SPR; for Drug RU: drug alone flowed at 100 nM over immobilized rI-domain; for Pilin + Drug RU: drug and pilin flowed at 100 nM, 1:1. The procedure: To determine if drugs with high affinity interactions with the human rI-domain could inhibit the interaction with MS11 pilin or HIV, competition assay between primary T-cell derived WITO HIV and N. gonorrhoeae MS11 pilin and the drugs were performed as described Mubaiwa et al (2017, Sci Rep. 7(1):5693). Competition analysis SPR of N. gonorrhoeae MS11 pilin and human rI-domain interaction was performed with human rI-domain immobilized on a CM5 sensor chip surface (low immobilization—˜3500 RU compared to ˜14000 RU for initial screening and KD calculations). N. gonorrhoeae MS11 purified pilin, drug or drug and pilin were flowed at 100 nM over the I-domain and the response units of the interactions were recorded.

The subject of assay [3] is primary T-cell derived WITO HIV interaction with human rI-domain. Description: SPR 1:1 competition assay, WITO HIV binding to rI-domain. As to conditions: for % inhibition: 1:1 competition, 1 μM; for Block HIV in SPR: direct competition SPR; for Drug RU: drug alone flowed at 1 μM over immobilized WITO HIV; for Pilin + Drug RU: drug and human rI-domain flowed at 1 μM, 1:1. The procedure: For competition analysis SPR of the HIV interaction with human rI-domain, primary T-cell derived WITO HIV was immobilized on a Cl sensor chip surface. Human rI-domain, drug or drug and human rI-domain were flowed at 1 μM over the immobilized HIV and the response units of the interactions were recorded. Any drug that could not compete with the virus or pilin binding to the rI-domain was also discarded. Remaining drugs were evaluated for known safety in humans and known therapeutic concentrations to determine if the drug would be tested, and at what concentrations, in in vitro cell models. All SPR sensorgrams and results plots were analyzed with Biacore S200 Evaluation Software (GE Healthcare Life Sciences).

Assay [4] relates to N. gonorrhoeae strain MS11gfp adherence to CHO-CR3 cells. Description: Fluorometric adherence assay, gonococci to CHO cells. It is filed as cell-based, Neisseria gonorrhoeae. On the procedure:
The ability of carbamazepine to block adherence of N. gonorrhoeae strain MS11gfp to CHO-neo or CHO-CR3 cells was evaluated using a fluorometric adherence assay. Assays were performed essentially as described by Jen et al (2013, PLoS Pathog. 9(5):e1003377). In this regard, CHO-neo or CHO-CR3 cells were seeded to a 96-well plate and allowed to grow to confluence. MS11gfp gonococci were then used to challenge (1 h) CHO cells simultaneously with, or without, various concentrations of carbamazepine (as noted). Fluorescence (485/528 nm) intensity, corresponding to bacterial adherence, was recorded using a Synergy HT Multi-mode Microplate Reader (BioTek Instruments, Winooski, VT USA). The assay was performed in triplicate on 3 separate occasions. A Kruskal-Wallis k-sample analysis of variance was used to determine the statistical significance of the calculated mean of bacterial adherence.
(§1) The ability of the compounds, or negative controls to block adherence of N. gonorrhoeae strain MS11gfp to PEX cells, CHO-CR3, or CHO-neo cells was evaluated using a fluorometric microtiter plate assay. Assays were performed essentially as described by Jen et al. (2013, Plos Pathog 9(5): e1003377). In this regard, GFP-expressing gonococci were used to challenge (1 h) PEX or CHO cells immediately following compound addition. Fluorescence (485/528 nm) intensity, corresponding to bacterial adherence, was recorded using a Synergy HT Multi-mode Microplate Reader (BioTek Instruments, Winooski, VT USA). Blank wells, devoid of PEX or CHO cells, also were inoculated with bacteria and served as a control for non-specific binding. The assay was performed in triplicate on 3 separate occasions. A Student's t-test was used to determine the statistical significance of the calculated mean of bacterial adherence.

The subject of assay [5] is N. gonorrhoeae adherence to primary human cervical epithelial (PEX) cells. Description: Fluorometric adherence assay, gonococci to PEX cells. It is filed as cell-based, Neisseria gonorrhoeae. As to conditions: for gonococcal adherence to PEX cells compared with uninfected cells: MS11gfp; for gonococcal adherence to PEX cells with increasing concentrations: 1 h post-challenge; for inhibition at 0.01 µM: Neisseria gonorrhoeae, 1 h, read-out: inhibition of adherence to PEX cells.
From the text: Briefly, six N. gonorrhoeae strains were used in the experiments. These included the laboratory strain, MS11; the low-passage isolates, 1291, UT38097, LT38885, PID-26, and SK92-679; all of which were transformed with the green fluorescent protein (GFP) expression plasmid, pCmGFP (GenBank accession number FJ172221) Srikhanta et al (2009, PLoS Pathog. 5(4):e1000400) and, thus, expressed GFP Edwards et al (2000, Infect Immun 68(9):5354-63). […] The ability of carbamazepine to block the adherence of N. gonorrhoeae to human, primary cervical epithelial (PEX) cells was evaluated using a fluorometric adherence assay. Assays were performed essentially as described by Jen et al (2013, supra). In this regard, PEX cells were seeded to a 96-well plate and allowed to grow to confluence. Gonococci were then used to challenge (1 h) PEX cells simultaneously with, or without, various concentrations of carbamazepine ([…], 10 nM, 1 μM, or 100 μM, as noted) or 1% DMSO (vehicle control). Uninfected PEX cells treated with 1% DMSO served as a control for background fluorescence. Fluorescence (485/528 nm) intensity, corresponding to bacterial adherence, was recorded using a Synergy HT Multi-mode Microplate Reader (BioTek Instruments, Winooski, VT USA). The assay was performed in triplicate on 3 separate occasions. A Student's t-test was used to determine the statistical significance of the calculated mean of bacterial adherence.
as §1

Assay [6] deals with N. gonorrhoeae strains. Put plainly: Well diffusion assay in the absence of human cells. The note with it: GC-agar, overnight 37° C. More on the design: species or system Neisseria gonorrhoeae. The procedure: (§2) FIG. 22 is a graphical representation showing the effect of carbamazepine on N. gonorrhoeae in the absence of human cells. Well diffusion assays were performed in which N. gonorrhoeae strains were spread uniformly across the surface of GC-agar plates at a culture density of 10^7 bacterial per mL. Wells were then punctured within the agar surface to which carbamazepine (Cz; […], as noted), 0.2 μg/mL ceftriaxone (Cfx), 10 μg/mL ciprofloxacin (Cip), or 1% DMSO (vehicle control) were added. […] For agar plates in which a ZOI was not visible, data were recorded as the diameter of the well (6 mm), as indicated. Assays were performed in triplicate on 3 separate occasions. Data are presented as the mean and variance of the average values obtained for each assay; statistical significance was determined using a Student's t-test. […] This is consistent with a CR3-dependent, host-mediated mechanism of killing.
as §2, with “23” for “22”, “methyldopa” for “carbamazepine”, “methyldopa (Md;” for “carbamazepine (Cz;”
FIG. 24 is a graphical representation showing the effect of flufenamic acid on N. gonorrhoeae in the absence of human cells. Well diffusion assays were performed in which N. gonorrhoeae strains were spread uniformly across the surface of GC-agar plates at a culture density of 10^7 bacterial per mL. Wells were then punctured within the agar surface to which flufenamic acid ([…], as noted), 0.2 μg/mL ceftriaxone, 10 μg/mL ciprofloxacin, or 1% DMSO (vehicle control) were added. […] For agar plates in which a ZOI was not visible, data were recorded as the diameter of the well (6 mm), as indicated. Assays were performed in triplicate on 3 separate occasions. Data are presented as the mean and variance of the average values obtained for each assay; statistical significance was determined using a Student's t-test.

[7] abbreviates: 0.2 μg/mL ceftriaxone, 10 μg/mL ciprofloxacin.

Where two headings read alike, the source gives them in different places.

T1 sequence (P11215 150-328 limits assumed): as the sequence (P11215 150-328) above

Consider `C[C@](N)(Cc1ccc(O)c(O)c1)C(=O)O` [methyldopa, (S)-2-amino-3-(3,4-dihydroxyphenyl)-2-methyl-propanoic acid], for which the dissociation constant (Kd) in assay [1] (SPR, single cycle kinetics, 25° C., PBS, read-out: KD) turned out to be 1.01 nM. In addition, in assay [2], the inhibition at 0.1 µM is 88.9%, the “Block MS11 pilin in SPR” value is on record as “Yes”, the “Drug RU” value is given as 4.578 RU and the “Pilin + Drug RU” value was 8.003 RU. Moreover, in assay [3], the “% inhibition” value came to 93.94%, the “Block HIV in SPR” value is “Yes”, the “Drug RU” value was 0.296 RU and the “Pilin + Drug RU” value was found to be 3.692 RU. Also, in assay [4] (100 μM, 1 h post-challenge), the “gonococcal adherence to CHO-CR3 cells compared with CHO-neo cells” value was “not significantly different than that recorded for CHO-neo cells”. Also, the “gonococcal adherence to CHO-CR3, but not CHO-neo, cells with increasing concentrations” value in assay [4] (1 h post-challenge) is “dose-dependent decrease”. Further, in assay [5] (1 μM), the “gonococcal adherence to PEX cells compared with uninfected cells” value is “not significantly (p≥0.234) different than those obtained for vehicle (DMSO)-treated, uninfected PEX cells”. Besides, the “gonococcal adherence to PEX cells compared with uninfected cells” value in assay [5] (100 μM) was “not significantly (p≥0.234) different than that recorded for uninfected cells”. Further, in assay [5], the “gonococcal adherence to PEX cells with increasing concentrations” value is given as “dose-dependent decrease” and the inhibition at 0.01 µM is around 85%. The “effect on N. gonorrhoeae in the absence of human cells (zone of inhibition)” value (shortened to “effect on N. gonorrhoeae … (zone of inhibition)”) in assay [6] (100 μM to 100 μM [sic]) was “no effect”.
In the case of `CO/N=C(\C(=O)N[C@@H]1C(=O)N2C(C(=O)O)=C(CSc3nc(=O)c(=O)[nH]n3C)CS[C@H]12)c1csc(N)n1` [ceftriaxone], in assay [6] (setting [7]), the “effect on N. gonorrhoeae … (zone of inhibition)” value was “direct effect in killing gonococci”.
On to `O=C(O)c1ccccc1Nc1cccc(C(F)(F)F)c1` [flufenamic acid, 2{[3-(trifluoromethyl)phenyl]amino}benzoic acid], for which the dissociation constant Kd in assay [1] was 6.66 nM. Moreover, in assay [2], the inhibition at 0.1 µM is 79.8%, the “Block MS11 pilin in SPR” value is recorded as “Yes”, the “Drug RU” value amounted to 4.627 RU and the “Pilin + Drug RU” value was determined as 10.872 RU. Also, in assay [3], the “% inhibition” value was 85.47%, the “Block HIV in SPR” value is recorded as “Yes”, the “Drug RU” value is listed as 0.473 RU and the “Pilin + Drug RU” value stood at 8.857 RU. Also, in assay [4] (100 μM, CHO-CR3 cells, 1 h), the “blocking of the adherence of gonococci to CR3” value is “Greater than 86%”. In assay [4] (1 h post-challenge), the “gonococcal adherence to CHO-CR3, but not CHO-neo, cells with increasing concentrations” value is recorded as “dose-dependent decrease”. Besides, in assay [5], the “gonococcal adherence to PEX cells with increasing concentrations” value is “dose-dependent decrease” and the inhibition at 0.01 µM was around 70%. Also, in assay [6] (100 μM to 100 μM [sic]), the “effect on N. gonorrhoeae … (zone of inhibition)” value is “no effect”. The “effect on N. gonorrhoeae … (zone of inhibition)” value in assay [6] (concentrations of ≤1 μM) is on record as “no effect”.
For `O=C(O)c1cn(C2CC2)c2cc(N3CCNCC3)c(F)cc2c1=O` [ciprofloxacin], the “effect on N. gonorrhoeae … (zone of inhibition)” value in assay [6] (setting [7]) is recorded as “direct effect in killing gonococci”.
